The text below walks through data of ChEMBL document CHEMBL5143561, “Neopestolides A-D, Diphenyl Ether Derivatives from the Plant Endophytic Fungus Neopestalotiopsis sp” (J Nat Prod, 2022).

By IC50 is commonly meant the concentration that gives 50% inhibition.

Holding throughout (assay type): functional, cell-based
One assay concerns J82. In words: Antiproliferative activity against human J82 cells assessed as reduction in cell viability measured after 72 hrs by MTT assay. To be noted: J82, 72 h. On the technique in general: Formazan colour is commonly taken as a measure of viable cells.
Another assay concerns HepG2. Put plainly: Antiproliferative activity against human HepG2 cells assessed as reduction in cell viability measured after 72 hrs by MTT assay. The settings on record: HepG2, 72 h.
Another assay relates to SK-BR-3. Put plainly: Antiproliferative activity against human SK-BR-3 cells assessed as reduction in cell viability measured after 72 hrs by MTT assay. To be noted: SK-BR-3, 72 h.
A further assay relates to HCT-116. In words: Antiproliferative activity against human HCT-116 cells assessed as reduction in cell viability measured after 72 hrs by MTT assay. To be noted: HCT-116, 72 h.

As for `C=C1COC(c2ccc3c(c2OC)C(=O)OCc2cc(C)cc(O)c2O3)C1O` (racemic), the IC50 in the assay on J82 was above 100 µM; with HepG2, 16.8 µM; in the assay with SK-BR-3, 29.1 µM; in the assay on HCT-116, 45.6 µM.
The matching figures for `COc1c(/C=C/[C@@](C)(O)CO)ccc2c1C(=O)OCc1cc(C)cc(O)c1O2`: above 100 µM, 70.1 µM, above 100 µM and 79.3 µM.
For the molecule `C=C1CO[C@H](c2ccc3c(c2OC)C(=O)OCc2cc(C)cc(O)c2O3)[C@H]1O`, the IC50 in the assay on J82 was above 100 µM; in the assay with HepG2 it was 30.1 µM; in the assay with SK-BR-3, 86.5 µM; with HCT-116 it was 57.1 µM.
The matching figures for `COc1c([C@H]2OC[C@@](C)(O)[C@H]2O)ccc2c1C(=O)OCc1cc(C)cc(O)c1O2`: above 100 µM, 80.1 µM, above 100 µM and 47.1 µM.
The matching figures for `C=C1CO[C@@H](c2ccc3c(c2OC)C(=O)OCc2cc(C)cc(O)c2O3)[C@@H]1O`: above 100 µM, 21.6 µM, above 100 µM and 20.7 µM.
The matching figures for `COc1c([C@@H]2OC[C@@](C)(O)[C@H]2O)ccc2c1C(=O)OCc1cc(C)cc(O)c1O2`: above 100 µM, 99.7 µM, 88.5 µM and 74.3 µM.
`C=C(C)[C@H](C)[C@H](O)c1ccc2c(c1OC)C(=O)OCc1cc(C)cc(O)c1O2`: the IC50 in the assay with J82 came to 62.4 µM; in the assay on HepG2, 12.4 µM; with SK-BR-3, 43.8 µM; with HCT-116 it was 22.4 µM.
